From patent publication US20180118718A1, “Substituted Quinoxaline Derivatives” (Selvita S.A., priority 2015, published 2018)
Structures can show the parent of a compound that is named as a salt.

Biological target: T1, Human recombinant His-tagged PFKFB3 (Homo sapiens, UniProt Q16875)
T1 construct: His; made in house
Assay: PFKFB3 IC50 Determination Assay (in vitro kinase assay, modified ADP-Glo system)
Type: biochemical
Details: ATP 20 μM and fructose-6-phosphate 2 μM (Km), 25 nM PFKFB3, 2 h, rt, ADP-Glo luminescence
Experimental: PFKFB3 IC50 Determination Assay
In vitro kinase assay used to determine IC50 values for tested inhibitors is based on a modified ADP-Glo™ system (Promega) and consists of two parts:
1. Kinase reaction—performed in optimized conditions. At this step PFKFB3 phosphorylates its substrate Fructose-6-phosphate using ATP as a source of phosphate to produce Fructose-2,6-bisphosphate and ADP. Reaction is performed at Km values for ATP and substrate using optimized buffer composition and time of the reaction. Human recombinant His-tagged PFKFB3 (PFKFB3 BATCH II SEC) with confirmed activity is produced and purified in-house. 2. Detection of ADP as a product of the reaction using ADP-Glo™ system. This part is conducted by using the commercially available kit ADP-Glo™ Kinase Assay (Promega, cat. No# V9103) according to manufacturer's instruction, modified by 5x dilutions of assay reagents (both ADP-Glo™ Reagent and Kinase Detection Solution).
Test compounds are dissolved in DMSO and then transferred to the V-bottom 96-well plate.
15 μL per well of Mix 1 is transferred to assay wells of 96-well white plate. […] Total reaction volume is 30 μL per well. Samples are tested in duplicates. Final concentration of DMSO in the reaction is 6.7%. Conditions needed for performing PFKFB3 (PFKFB3 BATCH II SEC) in vitro kinase assay are given below:
This protocol is based on Technical Bulletin, ADP-Glo™ Kinase Assay (Promega) and is adapted to 96-well plate containing 30 μL reaction mixture:
30 μL of 5x diluted ADP-Glo™ Reagent is added to each well of 96-well plate containing 30 μL of reaction mixture. The plate is incubated for 90 minutes on a shaker at RT. 60 μL of 5x diluted Kinase Detection Solution is added to each well of 96-well plate containing 60 μL of the solution (ratio of kinase reaction volume to ADP-Glo™ Reagent volume to Kinase Detection Solution volume is maintained at 1:1:2). Plate is incubated for 40 minutes on a shaker at RT, protected from light. Luminescence is measured in the plate reader Synergy 2 (BioTek).
Luminescent readouts for compounds tested in 10 concentrations (routinely from 100 μM to […], […] serial dilutions) in duplicates, as well as for positive control, are first normalized to no-substrate negative control by its subtraction. In the next step, % of normalized positive control is calculated for each data point and plotted against test compound concentration:
% of control percent of positive control normalized to no-substrate negative control Lumcpd luminescence of test compound Lumneg luminescence of no-substrate negative control Lumpos luminescence of positive control
IC50 parameter is determined by the GraphPad Prism 5.0 software [log(inhibitor) vs. response −Variable slope (four parameters)].

T1 sequence (Q16875 whole entry): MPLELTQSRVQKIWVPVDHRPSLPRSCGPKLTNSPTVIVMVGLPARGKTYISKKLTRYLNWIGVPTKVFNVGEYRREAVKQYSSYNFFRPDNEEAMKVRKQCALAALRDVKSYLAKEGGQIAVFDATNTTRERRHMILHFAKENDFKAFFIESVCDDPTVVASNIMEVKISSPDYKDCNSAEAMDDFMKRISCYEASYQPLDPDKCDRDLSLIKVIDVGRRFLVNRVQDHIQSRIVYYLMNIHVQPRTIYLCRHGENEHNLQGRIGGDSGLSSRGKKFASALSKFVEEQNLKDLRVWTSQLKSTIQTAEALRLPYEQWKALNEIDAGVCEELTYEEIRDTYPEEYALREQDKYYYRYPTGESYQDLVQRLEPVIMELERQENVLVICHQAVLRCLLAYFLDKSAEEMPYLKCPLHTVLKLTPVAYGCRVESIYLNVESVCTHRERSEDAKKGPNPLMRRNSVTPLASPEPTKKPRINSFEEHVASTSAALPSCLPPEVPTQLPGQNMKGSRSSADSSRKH

Row | SMILES | IC50
1 | CS(=O)(=O)c1ccncc1Nc1cc(-c2ccc(S(F)(F)(F)(F)F)cc2)c2nccnc2c1 [Example 213, N-(4-Methanesulfonylpyridin-3-yl)-8-[4-(pentafluoro-λ^6-sulfanyl)phenyl]quinoxalin-6-amine] | 10000 to 100000 nM
2 | Cn1ccc2ccc(-c3cc(Nc4ccccc4S(=O)(=O)N4CCNCC4)cc4nccnc34)cc21 [Example 15, 8-(1-Methyl-1H-indol-6-yl)-N-[2-(piperazine-1-sulfonyl)phenyl]quinoxalin-6-amine trifluoroacetate] | 1000 to 10000 nM
3 | Cn1ccc2cc(-c3cc(Nc4cc(CN)ccc4S(C)(=O)=O)cc4nccnc34)ccc21 [Example 38, N-[5-(Aminomethyl)-2-methanesulfonylphenyl]-8-(1-methyl-1H-indol-5-yl)quinoxalin-6-amine] | 10000 to 100000 nM
4 | Cn1ccc2ccc(-c3cc(Nc4cc(C#N)ccc4S(C)(=O)=O)cc4nccnc34)cc21 [Example 25, 4-Methanesulfonyl-3-{[8-(1-methyl-1H-indol-6-yl)quinoxalin-6-yl]amino}benzonitrile] | 1 to 1000 nM
5 | CC(=O)Nc1ccc(S(C)(=O)=O)c(Nc2cc(-c3ccc4ccn(C)c4c3)c3nccnc3c2)c1 [Example 41, N-(4-Methanesulfonyl-3-{[8-(1-methyl-1H-indol-6-yl)quinoxalin-6-yl]amino}phenyl)acetamide] | 1000 to 10000 nM
6 | CCOc1cccc(-c2cc(Nc3cnccc3S(C)(=O)=O)cc3nccnc23)c1 [Example 129, 8-(3-Ethoxyphenyl)-N-(4-methanesulfonylpyridin-3-yl)quinoxalin-6-amine] | 10000 to 100000 nM
7 | COc1ccc(C)cc1-c1cc(Nc2cnccc2S(C)(=O)=O)cc2nccnc12 [Example 74, N-(4-Methanesulfonylpyridin-3-yl)-8-(2-methoxy-5-methylphenyl)quinoxalin-6-amine] | 1000 to 10000 nM
8 | Cn1ccc2ccc(-c3cc(Nc4cc(C(N)=O)ccc4S(C)(=O)=O)cc4nccnc34)cc21 [Example 116, 4-Methanesulfonyl-3-{[8-(1-methyl-1H-indol-6-yl)quinoxalin-6-yl]amino}benzamide] | 1 to 1000 nM
9 | Cc1coc2ccc(-c3cc(Nc4c[n+]([O-])ccc4S(C)(=O)=O)cc4nccnc34)cc12 [Example 72, 4-Methanesulfonyl-3-{[8-(3-methyl-1-benzofuran-5-yl)quinoxalin-6-yl]amino}pyridin-1-ium-1-olate] | 1 to 1000 nM
10 | Cn1ccc2ccc(-c3cc(N4CCc5ccncc54)cc4nccnc34)cc21 [Example 2, 5-(1-Methyl-1H-indol-6-yl)-7-{1H,2H,3H-pyrrolo[2,3-c]pyridin-1-yl}quinoxaline] | 1 to 1000 nM
11 | Cc1ccc(O)c(-c2cc(Nc3cnccc3S(C)(=O)=O)cc3nccnc23)c1 [Example 67, 2-{7-[(4-Methanesulfonylpyridin-3-yl)amino]quinoxalin-5-yl}-4-methylphenol] | 1000 to 10000 nM
12 | CS(=O)(=O)c1ccncc1Nc1cc(-c2ccc3n[nH]nc3c2)c2nccnc2c1 [Example 118, 8-(1H-1,2,3-Benzotriazol-5-yl)-N-(4-methanesulfonylpyridin-3-yl)quinoxalin-6-amine] | 1000 to 10000 nM
13 | CN1CCN(c2ccc(S(C)(=O)=O)c(Nc3cc(-c4ccc5ccn(C)c5c4)c4nccnc4c3)c2)CC1 [Example 45, N-[2-Methanesulfonyl-5-(4-methylpiperazin-1-yl)phenyl]-8-(1-methyl-1H-indol-6-yl)quinoxalin-6-amine] | 1000 to 10000 nM
14 | CS(=O)(=O)c1ccncc1Nc1cc(-c2ccc(Br)c(F)c2)c2nccnc2c1 [Example 211, 8-(4-Bromo-3-fluorophenyl)-N-(4-methanesulfonylpyridin-3-yl)quinoxalin-6-amine] | 1 to 1000 nM
15 | CN(c1cc(-c2ccc3ccn(C)c3c2)c2nccnc2c1)c1cnccc1C(=O)Nc1cncnc1 [Example 125, 3-{Methyl[8-(1-methyl-1H-indol-6-yl)quinoxalin-6-yl]amino}-N-(pyrimidin-5-yl)pyridine-4-carboxamide] | 1000 to 10000 nM
16 | CN(C)Cc1ccccc1Nc1cc(-c2ccc3ccn(C)c3c2)c2nccnc2c1 [Example 176, N-{2-[(Dimethylamino)methyl]phenyl}-8-(1-methyl-1H-indol-6-yl)quinoxalin-6-amine] | 1 to 1000 nM
17 | CN1CCC(NC(=O)c2ccccc2Nc2cc(-c3ccc4ccn(C)c4c3)c3nccnc3c2)C1 (centres unmarked) [Example 183, 2-{[8-(1-Methyl-1H-indol-6-yl)quinoxalin-6-yl]amino}-N-(1-methylpyrrolidin-3-yl)benzamide] | 1 to 1000 nM
18 | CS(=O)(=O)c1ccncc1Nc1cc(-c2ccc(F)cc2)c2nccnc2c1 [Example 188, 8-(4-Fluorophenyl)-N-(4-methanesulfonylpyridin-3-yl)quinoxalin-6-amine] | 1 to 1000 nM
19 | CS(=O)(=O)c1ccccc1Nc1cc(-c2ccc3sc(N)nc3c2)c2nccnc2c1 [Example 190, 8-(2-Amino-1,3-benzothiazol-5-yl)-N-(2-methanesulfonylphenyl)quinoxalin-6-amine] | 1 to 1000 nM
20 | CS(=O)(=O)c1ccncc1Nc1cc(-c2ccc(N)c(F)c2)c2nccnc2c1 [Example 186, 8-(4-Amino-3-fluorophenyl)-N-(4-methanesulfonylpyridin-3-yl)quinoxalin-6-amine] | 1 to 1000 nM
21 | CCc1cc(CC)cc(-c2cc(Nc3cnccc3S(C)(=O)=O)cc3nccnc23)c1 [Example 192, 8-(3,5-Diethylphenyl)-N-(4-methanesulfonylpyridin-3-yl)quinoxalin-6-amine] | 1000 to 10000 nM

Continued, values first:

Row | IC50 | SMILES
22 | 1 to 1000 nM | CC(=O)N1CCN(c2ccncc2Nc2cc(-c3ccc4ccn(C)c4c3)c3nccnc3c2)CC1 [Example 82, 1-[4-(3-{[8-(1-Methyl-1H-indol-6-yl)quinoxalin-6-yl]amino}pyridin-4-yl)piperazin-1-yl]ethan-1-one]
23 | 1 to 1000 nM | Cn1ccc2ccc(-c3cc(Nc4cnccc4C(=O)Nc4cccnc4)cc4nccnc34)cc21 [Example 207, 3-{[8-(1-Methyl-1H-indol-6-yl)quinoxalin-6-yl]amino}-N-(pyridin-3-yl)pyridine-4-carboxamide]
24 | 10000 to 100000 nM | Cn1cc(-c2ccncc2Nc2cc(-c3ccc4c(ccn4C)c3)c3nccnc3c2)cn1 [Example 31, 8-(1-Methyl-1H-indol-5-yl)-N-[4-(1-methyl-1H-pyrazol-4-yl)pyridin-3-yl]quinoxalin-6-amine]
25 | 1 to 1000 nM | Cn1ccc2ccc(-c3cc(Nc4cnccc4C(=O)O)cc4nccnc34)cc21 [Example 179, 3-{[8-(1-Methyl-1H-indol-6-yl)quinoxalin-6-yl]amino}pyridine-4-carboxylic acid]
26 | 1 to 1000 nM | Cn1ccc2ccc(-c3cc(Nc4cc(Br)ccc4S(C)(=O)=O)cc4nccnc34)cc21 [Example 10, N-(5-Bromo-2-methanesulfonylphenyl)-8-(1-methyl-1H-indol-6-yl)quinoxalin-6-amine]
27 | 1 to 1000 nM | Cn1ccc2ccc(-c3cc(Nc4cncc5c4OCCN5)cc4nccnc34)cc21 [Example 84, 8-(1-Methyl-1H-indol-6-yl)-N-{2H,3H,4H-pyrido[4,3-b][1,4]oxazin-8-yl}quinoxalin-6-amine]
28 | 1 to 1000 nM | Cn1ccc2ccc(-c3cc(Nc4ccccc4C(=O)O)cc4nccnc34)cc21 [Example 178, 2-{[8-(1-Methyl-1H-indol-6-yl)quinoxalin-6-yl]amino}benzoic acid]
29 | 1 to 1000 nM | Cn1cnc(-c2ccncc2Nc2cc(-c3ccc4ccn(C)c4c3)c3nccnc3c2)c1 [Example 83, N-[4-(1-Methyl-1H-imidazol-4-yl)pyridin-3-yl]-8-(1-methyl-1H-indol-6-yl)quinoxalin-6-amine]
30 | 1 to 1000 nM | Cn1ccc2ccc(-c3cc(Nc4cnccc4-c4nn[nH]n4)cc4nccnc34)cc21 [Example 68, 8-(1-Methyl-1H-indol-6-yl)-N-[4-(1H-1,2,3,4-tetrazol-5-yl)pyridin-3-yl]quinoxalin-6-amine]
31 | 1000 to 10000 nM | Cn1ccc2ccc(-c3cc(Nc4cnccc4C(=O)NC4CCCCC4)cc4nccnc34)cc21 [Example 126, N-Cyclohexyl-3-{[8-(1-methyl-1H-indol-6-yl)quinoxalin-6-yl]amino}pyridine-4-carboxamide]
32 | 1000 to 10000 nM | Cn1ccc2cc(-c3cc(Nc4cnccc4C(N)=O)cc4nccnc34)ccc21 [Example 29, 3-{[8-(1-Methyl-1H-indol-5-yl)quinoxalin-6-yl]amino}pyridine-4-carboxamide]
